Test results from patent publication US20120035135A1, “Treatment of Transgenic Crops with Mixtures of Fiproles and Chloronicotinyls” (Bayer CropScience AG, priority 2008, published 2012).

What was measured:
Assay type in all cases: in vivo
Spodoptera exigua = Spodoptera exigua test (leaf application) on transgenic corn; conditions: 96 h, after 4 d
From the text: (§1) The expected activity for a given combination of two (or more) active compounds can be calculated (cf. COLBY, S. R.; “Calculating Synergistic and Antagonistic Responses of Herbicide Combinations”, Weeds 15, pages 20-22, 1967):′
(§2) If • X=the kill rate, expressed in % of the untreated control, when employing active compound A at an application rate of m ppm or m g/ha, • Y=the kill rate, expressed in % of the untreated control, when employing active compound B at an application rate of n ppm or n g/ha, • Z=the kill rate, expressed in % of the untreated control, when employing active compound C at an application rate of r ppm or r g/ha, • E=the kill rate, expressed in % of the untreated control, when employing active compounds A and B and C at application rates of m, n, and r ppm or m, n, and r g/ha, then for a combination of two ore more components
(§3) If the actual insecticidal kill rate is higher than the calculated one, the kill rates of the combination are super additive, i.e. a synergistic effect is present. In this case, the kill rate that is actually observed has to be higher than the value, calculated using the formula above, for the expected kill rate (E).
Transgenic corn plants containing lepidoptera, coleoptera and/or herbicide resistance were treated with the respective products against the beet army worm (Spodoptera exigua).
(§4) After the specified period of time, the mortality in % is determined. 100% means that all the caterpillars have been killed; 0% means that none of the caterpillars have been killed.

Spodoptera frugiperda [1] = test: Spodoptera frugiperda test (leaf application) on transgenic corn; conditions: 96 h, after 4 d
From the text: as §1, §2
as §3, with “(E). […]” for “(E).”
(§5) After the specified period of time, the mortality in % is determined. […]

Spodoptera frugiperda [2] = test: Spodoptera frugiperda test (leaf application) on transgenic cotton; conditions: 24 h, after 1 d
From the text: as §1, §2, §3
Transgenic cotton plants containing lepidoptera and herbicide resistance were treated with the respective products against the fall army worm (Spodoptera frugiperda).
as §4

Spodoptera frugiperda [3] = test: Spodoptera frugiperda test (drench application) on transgenic corn; conditions: soil, 96 h, after 4 d
From the text: as §1, §2
as §3, with “(E). […]” for “(E).”
as §5

| SMILES | mortality at 4 ppm (Spodoptera exigua; 4 ppm) | mortality at 4 ppm (Spodoptera frugiperda [1]; 4 ppm) | mortality at 20 ppm (Spodoptera frugiperda [2]) | mortality at 20 ppm (Spodoptera frugiperda [3]; 20 ppm) | mortality at 20 ppm (Spodoptera exigua; 20 ppm) | mortality at 100 ppm (Spodoptera exigua; 100 ppm) | mortality at 100 ppm (Spodoptera frugiperda [1]; 100 ppm) | mortality at 100 ppm (Spodoptera frugiperda [2]; 100 ppm) | mortality at 100 ppm (Spodoptera frugiperda [3]; 100 ppm) |
| --- | --- | --- | --- | --- | --- | --- | --- | --- | --- |
| N#Cc1nn(-c2c(Cl)cc(C(F)(F)F)cc2Cl)c(N)c1[S+]([O-])C(F)(F)F (stereo not shown) [Fipronil, fipronil] | 0% | 15% | 0% | 0% |  |  |  |  |  |
| O=[N+]([O-])NC1=NCCN1Cc1ccc(Cl)nc1 [Imidacloprid, imidacloprid] |  |  |  |  | 0% | 10% | 15% | 50% | 0% |
| CC[S+]([O-])c1c(C#N)nn(-c2c(Cl)cc(C(F)(F)F)cc2Cl)c1N (stereo not shown) [Ethiprole, ethiprole] |  |  | 0% |  |  |  |  |  |  |
